US5202320A, “Method for treating leishmaniasis” (priority 1989, dated 1993)

How the values were obtained:
[1] = test system: Preumocystis carinii pneumonia; conditions: especially immunocompromised patients suffering from AIDS; cited from earlier work
[2] = test system: Leishmania mexicana amazonensis; experiment: In vitro screening for anti-leishmanial activity: inhibition of 3H-thymidine incorporation by promastigotes; format: cell-based; conditions: for IC50: PREVIOUS, Table III only
Procedure: Leishmania mexicana amazonensis, strain MHOM/BR/73/M2269 (WR669), promastigotes were grown to early log phase in Schneider's Drosophila Medium (GIBCO) supplemented with 20% heat-inactivated fetal bovine serum GIBCO) and 100 ug/ml gentamicin sulfate [Parasitology 76:309 (1978)]. The assay medium was Schneider's plus 10% fetal bovine serum. Serial dilutions of the compounds of use in the present invention were suspended in the assay medium an prepared in duplicate rows of a 96-well microtiter plate. Parasite suspension (200 ul) at 2.5×10^6 cells/ml was added to each well and each plate was sealed and incubated under air at 25° C. After 24 hours, [methyl-3H] thymidine (20 Ci/mmol) was added to yield 1-2 uCi/well. After an additional 18 hours, the cells were harvested with a Skatron cell harvester onto glass microfiber filters. The filter disks were washed and dried and counted using a Beckman LS3801 scintillation counter. The data on uptake of ^3 H-thymidine was fitted to a logistic-logarithmic concentration response function by a non-linear regression method and the drug concentrations required to inhibit 50% incorporation of ^3 H-thymidine were determined [Antimicrob. Agents Chemother. 16:710 (1979); Exper. Parasitol. 66:86 (1988)].

leishmaniasis = conditions: Reviews of Infectious Diseases 10(3):576-577; Experimental Parasitology 52:409 (1981); cited from earlier work
trypanosomiasis = conditions: in vivo; cited from earlier work

SMILES	anti-Leishmania activity (in words) [2]	IC50 ([2]; Leishmania mexicana) [nM]	other results
N=C(N)c1ccc(OCCCCCOc2ccc(C(=N)N)cc2)cc1 [Example 4, pentamidine]	moderately effective against Leishmania		usefulness in treatment of Preumocystis carinii pneumonia (in words) [1]: extremely useful in the treatment of Preumocystis carinii pneumonia; utility for treating leishmaniasis (in words) (leishmaniasis): limited utility for the purpose of treating leishmaniasis; usefulness for treatment of trypanosomiasis (in words) (trypanosomiasis): useful for the treatment of trypanosomiasis
N=C(N)c1ccc(NCCCCCNc2ccc(C(=N)N)cc2)cc1 [Example 8]	high-degree of anti-Leishmania activity		
N=C(N)c1ccc(OCCCCCCOc2ccc(C(=N)N)cc2)cc1 [Example 9, hexamidine]	high-degree of anti-Leishmania activity		
c1cc(C2=NCCN2)ccc1OCCCCCOc1ccc(C2=NCCN2)cc1 [Example 15]		670	
CN1CCN=C1c1ccc(OCCCCCOc2ccc(C3=NCCN3C)cc2)cc1 [Example 16]			IC50 [2]: > 4500 nM
COc1cc(C2=NCCN2)ccc1OCCCOc1ccc(C2=NCCN2)cc1OC [Example 17]		> 4500	
